The values below come from US12655169B2, “Arabinose and preparation and use thereof” (THOMSON BIOTECH (XIAMEN) PTE. LTD., priority 2022, dated 2026).

Data set [1] can be described thus: Particle size parameter test (BT-2900 image particle size analysis system). Type of data set: physicochemical. An excerpt: (§1) Example 4. Particle Size Parameters and Powder Characteristics (Quantity Distribution) of L-Arabinose
Data set [2] can be described thus: Flowability test (particle and powder characteristic analyzer, FT-102D). It counts as physicochemical.
Text: as §1
Example 13. Performance Test Results for the Granules of the Present Disclosure

A short description of data set [3]: Granularity distribution of sample (standard sieve). It counts as physicochemical. As to conditions: Example 8 samples, seed crystal specification and fed-batch time varied. On the procedure: 1 kg of L-arabinose starting material was dissolved in 1.2 kg of purified water at 60° C. After the solution was completely clear, 1 g of activated carbon ([…] of the L-arabinose) was added. The mixture was incubated at 60° C. for 30 min and then subjected to suction filtration under vacuum successively through 25 μm and 0.45 μm filter membranes to remove the activated carbon, and a clear filtered sugar liquid (about 1800 mL in volume) was obtained. About 800 mL of the clear filtered sugar liquid was added to a three-necked flask, and stirred and evaporated under reduced pressure in a water bath set at a temperature of 62° C. until the sugar degree reached 58-60% Brix. A proper amount of L-arabinose was added as seed crystals (as shown in Table 8-1 below, seed crystal with different specifications was selected: 40-60 mesh, 16.5 g; 60-80 mesh, 6 g; 80-100 mesh, 1.5 g). The mixture was stirred (double-layered type of stirring, with two-half-crescent type for the lower layer and three-bladed propeller type for the upper layer) at a rate of 90-110 rpm until the seed crystal was completely dispersed. Then the sugar liquid was added at a rate of 50-100 mL/h in a fed-batch manner for a time period of 12/18 h. After the fed-batch addition was completed, the concentrating was continued for 1-2 h. It was about 14 h from the time the seed crystal was added to the time of discharging.
According to the results shown in Table 8-1, the specific surface area of the seed crystal of 80-100 mesh is relatively […] compared with that of the seed crystal of other specifications (as shown in Table 8-2), but the particle size distribution of the sample obtained by experiment is relatively uniform: the proportion of 20-80 mesh is more than 89.7%, and the maximum proportion is more than 90%, which fully complies with the requirements of the existing pharmacopoeia (Chinese pharmacopoeia (2020)) for granules: granules cannot pass through a No. 1 sieve (10 mesh, 2000 μm) and the total quantity of granules which can pass through a No. 5 sieve (80 mesh, pore size of […]) should not exceed 15%.

The subject of the next data set is SPF mice. The data set is described as follows: Bowel preparation in mice. It counts as in vivo. The procedure: 5.1 Experimental animals and feeding thereof: SPF (Specific pathogen free) mice, 6 weeks old; normal feed was D12450-B feed: 67.35 wt % carbohydrates, 19.2 wt % crude protein, 4.3 wt % fat. The temperature of the room was kept at 24-26° C. with humidity at 40-60%.
5.2 Experimental method and procedure:
The SPF mice were randomly divided into a blank control group, a positive control group and a treatment group, 20 mice per group, half being male and half female. Administration method: Animals in each group were fasted (water was accessible) from last 22:00 before the day of experiment, were each given ⅓ the calculated amount of drug by intragastrical administration at 7:00, 9:00 and 11:00 on the day of experiment, were each given 0.1 mL of purified water at 12:00, 13:00 and 14:00, and were dissected 3.5 h after the last administration.

Another data set relates to Humans. The data set is described as follows: Bowel preparation in humans. Type of data set: in vivo. The procedure: Administration Sample: L-Arabinose Prepared in Example 1 Subject: weighing 73 kg Administration Regimen: The subject drank water normally on an empty stomach after getting up in the morning. At 10:06, the subject dissolved 30 g of L-arabinose in about 100-150 mL of mineral water and consumed the solution in about 5 min.

Data set [4] in a line: In vitro osmotic pressure test (Vapro Pressure Osmometer). As to conditions: versus sorbitol solution at the same mass concentration 30%. Type of data set: physicochemical. The text has this:
Instrument: Vapro Pressure Osmometer
Materials: L-Arabinose (Prepared According to the Method of Example 1); Sorbitol (Commercially Available Chinese Medicinal Agent)
Procedure: The 4 numbered solutions were each prepared according to the material proportions shown in Table 2 and stirred until they were all clear and transparent.

Data set [5] can be described thus: Saturation curve and crystallization curve of L-arabinose. Type of data set: physicochemical. The settings on record: for Crystallization mass concentration: cooling 1 °C/h, stirring 100 rpm; for Saturation mass concentration: water. On the procedure:
A round-bottom flask was plated in a constant-temperature box with temperature control. To a three-necked round-bottom flask (one flask mouth was plugged with a plastic stopper as a sampling mouth, one flask mouth was used for placing a stirrer, and one flask mouth was used for temperature sensing) were added a certain amount of ionized water and excessive L-arabinose crystal (prepared according to the method of Example 10). The mixture was stirred at 40° C., 49° C., 53° C., 58° C. and 65° C. for 3 h per temperature point, and then let stand for 4 h to allow the undissolved L-arabinose crystal to completely settle. Then the supernatant was collected and filtered through a microporous filter membrane (for filtration using a small injection needle in the constant-temperature box to eliminate the effect of temperature change). The resulting clear liquid was used for concentration determination. A saturation curve was plotted for arabinose: y=0.5927x+23.089 (correlation coefficient R 2=0.99) (see FIG. 4). Clear sugar liquids in which corresponding mass concentrations of L-arabinose were dissolved was prepared, then slowly cooled (1° C./h), and cooled at a constant rate (with stirring at 100 rpm). The crystallization temperature of the sugar liquids with different mass concentrations was observed and recorded. A crystallization curve was plotted for arabinose: y=0.4163x+40.413 (correlation coefficient R 2=1) (see FIG. 4 and Table 15-1).

[6] abbreviates: quantity distribution, image particle size analysis.

Turning to `O[C@@H]1[C@@H](O)[C@@H](O)OC[C@@H]1O` [Example 1, β-L-(+)-arabinose], in data set [1] (particle size analysis), the span is 0.985. In data set [1] (setting [6]), this molecule came in with an Average particle size of 149 μm, a D10 of 49 μm, a D50 of 138 μm and a D90 of 261 μm. For the same molecule, in data set [2], the Bulk density was 0.7 g/mL, the Compressibility amounted to 17.1%, the Floodability index came out at 75.0 and the “Flowability (Hausner ratio)” value is given as “Good”. Moreover, in data set [2], the Hausner ratio is reported as 1.2 and the Tap density was found to be 0.85 g/mL. Further, the Angle of repose in data set [2] (in ° (unit assumed)) is reported as 40.01. In data set [3], this molecule registered a Granularity distribution of sample (standard sieve) 20-80 mesh of 71.2%, a Granularity distribution of sample (standard sieve) <80 mesh of 5.4% and a Granularity distribution of sample (standard sieve) >20 mesh of 23.4%. Besides, in the data set on SPF mice (12 g/kg vs PEG 31.5 g/kg), the “Dosage relative to the positive control group to achieve the same effect” value turned out to be 38%. The “Residue in the rectum and colon after the dissection” value with SPF mice (dissected 3.5 h after the last administration, L-arabinose 12 g/kg, PEG 31.5 g/kg) is “no residue was left in the rectum and colon”. Besides, the “Stools observed before the dissection” value in the data set with SPF mice (intragastrical, three doses, L-arabinose 12 g/kg, PEG 31.5 g/kg) is “Watery and loose stools”. Moreover, in the data set on Humans (30 g oral, at 10:42 (dose at 10:06)), the “Stool passed, first bathroom visit” value is given as “loose stool”. In addition, the “Stool passed, second bathroom visit” value with Humans (30 g oral, at 11:11) is given as “watery stool”. Further, in the data set on Humans (30 g oral, at 11:55), the “Stool passed, third bathroom visit” value is reported as “watery stool with little residue”. Further, the “Stool passed, fourth bathroom visit” value in the data set with Humans (30 g oral, at 13:27) was “light yellow watery stool without residue”. Further, the “Time from administration to first stool” value in the data set on Humans (one subject, 30 g oral in 100-150 mL water) is on record as “About 40 min”.
On to `O[C@@H]1[C@@H](O)[C@@H](O)OC[C@@H]1O` [L-arabinose, β-L-(+)-arabinose], for which, in data set [4], the “Percent increase in osmotic pressure” value turned out to be 22.8%. Also, the Supersaturation coefficient worked out at 1.233 in data set [5] (40 °C); 1.154 in data set [5] (49 °C); 1.134 in data set [5] (53 °C); 1.135 in data set [5] (58 °C); 1.097 in data set [5] (65 °C). Besides, the Crystallization mass concentration worked out at 57.07% in data set [5] (40 °C); 60.81% in data set [5] (49 °C); 62.48% in data set [5] (53 °C); 64.56% in data set [5] (58 °C); 67.47% in data set [5] (65 °C). The Saturation mass concentration in data set [5] (40 °C) came to 46.3%; in data set [5] (49 °C), 52.7%; in data set [5] (53 °C) it was 55.1%; in data set [5] (58 °C), 56.9%; in data set [5] (65 °C), 61.5%.
